Series [1] relates to BV2 (mouse microglia) cell line. In words: pHrodo-myelin phagocytosis/cell viability high content imaging assay: phagocytosis signal. The format is cell-based. The procedure:
(§1) It is important to note that stressed cells, such as those that are dying, are prone to show an increase in phagocytosis. […] MerTK promotes phagocytosis and thus MerTK inhibition is proposed to lead to inhibition of phagocytosis.[47]
(§2) phagocytosis and cell viability simultaneously. High content imaging is performed with the
(§3) (approximately 22 hours after pHrodo-myelin addition). Three measurements are extracted
(§4) intensity increase (early apoptosis) and decrease (later apoptosis), respectively. These
and 3). […]

Series [2] has the same test system. In words: pHrodo-myelin phagocytosis/cell viability high content imaging assay: viability (cell count, nuclear area, nuclear intensity). The procedure:
(§5) All AD Informer Set compounds were tested in two immortalized microglial cell lines, murine (BV2), and human (HMC3), in a high‐content imaging assay in duplicate by the Chu lab. Experimental details and all data can be found as supporting information files.
(§6) The role of microglia in AD has been well documented and was thus chosen as a cell type in which to profile the AD Informer Set.[43], [44], [45] As an example, neuroinflammation, as detected by the presence of activated complement proteins, interleukins, cytokines, and chemokines in microglia and astrocytes, is increased early in AD and is considered pathogenic due to its chronic nature.[33], [34] Cytotoxic effects can be assessed by considering multiple parameters.
(§7) Microglial viability and phagocytosis studies: The pHrodo-myelin phagocytosis/cell viability assay, modified based on a published method, was run with immortalized BV2 (mouse microglia) and HMC3 (human microglia) cell lines in the Chu lab at IUSM. The 384-well plate high content analysis assay with BV2 and HMC3 microglial cell lines is used to quantify both phagocytosis and cell viability simultaneously. High content imaging is performed with the ArrayScan automatic imaging system and imaging analysis done with the software on the system. After allowing cells to adhere overnight, they are treated with compounds for total 48 hours including final 20 hours seeded with pHrodo-myelin (labeled phagocytosis ligand, purified […]
(§8) (approximately 22 hours after pHrodo-myelin addition). Three measurements are extracted from the assay: 1) phagocytosis signal by mean total phagocytosis spot intensity per cell, 2) total cell counts per well as the main measurement of cell viability, and 3) mean average nuclear intensity per cell as profiling of cell health since apoptotic cells showing nuclear intensity increase (early apoptosis) and decrease (later apoptosis), respectively. These measurements allow for evaluation of compound-induced phagocytosis (1) and cytotoxicity (2 and 3). Assays were carried out at a single concentration (10 μM). Idelalisib (10 μM) and cytochalasin-D (4 μM) were used as positive controls in the assay. All data, which was an average of 2 data points, was normalized to untreated wells and reported as % control, which is included in the Supporting Information both as a raw data file and summarized in the compound/gene-annotation file.

The test system of series [3] is HMC3 (human microglia) cell line. The series is described as above. Here is the method: as §5, §6, §7, §8
For series [4] the test system is unchanged. In words: pHrodo-myelin phagocytosis/cell viability high content imaging assay: phagocytosis signal. The format is cell-based. The procedure: as §1, §2, §3, §4
and 3). […]

Where [5] appears, read: BV2, compound 10 uM, 48 hours treatment.
Setting [6] is: HMC3, compound 10 uM, 48 hours treatment.
Setting [7] is: BV2, compound 10 uM, pHrodo-myelin.
Where [8] appears, read: HMC3, compound 10 uM, pHrodo-myelin.
[9] abbreviates: BV2 cells, 10 uM compound, 48 hours treatment.
Where [10] appears, read: HMC3 cells, 10 uM compound, 48 hours treatment.
Where [11] appears, read: BV2 cells, 10 uM compound, 48 hours treatment, pHrodo-myelin final 20 hours.
Setting [12] is: HMC3 cells, 10 uM compound, 48 hours treatment, pHrodo-myelin final 20 hours.

As to `Cc1cc(O)cc2c1[C@]1(C)CC[C@H]3C(C)(C)CCC[C@]3(C)[C@H]1C2` [AQX-MN100], the “Stimulation of mouse microglial phagocytosis at 10 μM (>150% control)” value (“Stimulation … (>150% control)” below) in series [1] (10 μM, BV2) was “Y (The compound was found to stimulate phagocytosis (response threshold: >150% control) when murine immortalized microglial cells were dosed at 10 μM (Y: yes))”.

For `C=C1[C@@H](C)[C@H]2[C@H](Cc3ccccc3)NC(=O)[C@]23[C@H](OC(C)=O)/C=C/[C@@](C)(O)C(=O)[C@@H](C)C/C=C/[C@H]3[C@@H]1O` [Cytochalasin-D], in series [2] (BV2, control compound at 4uM), the “1. Cell count (% control)” value is listed as 9.1 % control, the “2. Nuclear Area (% Control)” value came out at 119.3 % Control and the “3. Nuclear DNA Intensity (% control)” value stood at 141.3 % control. Besides, in series [3] (HMC3, control compound at 4uM), the “1. Cell count (% control)” value came to 57.1 % control, the “2. Nuclear Area (% Control)” value came out at 76.9 % Control and the “3. Nuclear DNA Intensity (% control)” value was 178.9 % control. The “4. Phagocytosis (% control)” value in series [1] (BV2, control compound at 4uM, pHrodo-myelin) is reported as 18.4 % control. Besides, the “4. Phagocytosis (% control)” value in series [4] (HMC3, control compound at 4uM, pHrodo-myelin) worked out at 4.8 % control.

For the molecule `CC[C@H](Nc1ncnc2[nH]cnc12)c1nc2cccc(F)c2c(=O)n1-c1ccccc1` [Idelalisib], in series [2] (setting [5]), the “1. Cell count (% control)” value was determined as 17.2 % control, the “2. Nuclear Area (% Control)” value is recorded as 138.0 % Control and the “3. Nuclear DNA Intensity (% control)” value amounted to 108.4 % control. In series [3] (setting [6]), the “1. Cell count (% control)” value is recorded as 61.4 % control, the “2. Nuclear Area (% Control)” value is on record as 105.8 % Control and the “3. Nuclear DNA Intensity (% control)” value was found to be 124.0 % control. The “4. Phagocytosis (% control)” value in series [1] (setting [7]) was 107.9 % control. Besides, the “4. Phagocytosis (% control)” value in series [4] (setting [8]) is 5.6 % control.

Take `COc1ccc(/C=C/C(=O)c2ccc(OC)cc2OC)cc1` [Metochalcone]: in series [3] (HMC3, 10 μM, cell count <70% control), the “Human microglial cytotoxicity at 10 μM (<70% control)” value is given as “Y (The compound was found to be cytotoxic (cell count threshold: <70% control) when human immortalized microglial cells were dosed at 10 μM (Y: yes))”. Besides, the “Stimulation … (>150% control)” value in series [1] (BV2, 10 μM) is on record as “Y (The compound was found to stimulate phagocytosis (response threshold: >150% control) when murine immortalized microglial cells were dosed at 10 μM (Y: yes))”.

Consider `C=C1C(=O)[C@]23[C@H](O)[C@H]1CC[C@H]2[C@@]12CO[C@]3(O)[C@@H](O)[C@@H]1C(C)(C)CC[C@@H]2O` [Oridonin], for which, in series [2] (BV2), the “Mouse microglial cytotoxicity at 10 μM (<70% control)” value was “Y (The compound was found to be cytotoxic (cell count threshold: <70% control) when murine immortalized microglial cells were dosed at 10 μM (Y: yes))”. Further, the “Human microglial cytotoxicity at 10 μM (<70% control)” value in series [3] (10 μM, HMC3) is recorded as “Y (The compound was found to be cytotoxic (cell count threshold: <70% control) when human immortalized microglial cells were dosed at 10 μM (Y: yes))”. Further, the “Stimulation … (>150% control)” value in series [1] (10 μM, BV2) is “Y (The compound was found to stimulate phagocytosis (response threshold: >150% control) when murine immortalized microglial cells were dosed at 10 μM (Y: yes))”. Further, the “Inhibition of human microglial phagocytosis at 10 μM (<70% control)” value (“Inhibition … (<70% control)” below) in series [4] (HMC3) is “Y (The compound was found to inhibit phagocytosis (response threshold: <70% control) when human immortalized microglial cells were dosed at 10 μM (Y: yes))”.

For the molecule `O=c1ccc2c(OCCCCOc3ccccc3)c3ccoc3cc2o1` [PAP-1 (5-(4-Phenoxybutoxy)psoralen)], in series [1] (10 μM, BV2), the “Stimulation … (>150% control)” value is “Y (The compound was found to stimulate phagocytosis (response threshold: >150% control) when murine immortalized microglial cells were dosed at 10 μM (Y: yes))”.

As for `COc1cc([C@@H]2c3cc4c(cc3[C@H](O)[C@H]3COC(=O)[C@H]23)OCO4)cc(OC)c1OC` [Podofilox], the “Mouse microglial cytotoxicity at 10 μM (<70% control)” value in series [2] (BV2) is recorded as “Y (The compound was found to be cytotoxic (cell count threshold: <70% control) when murine immortalized microglial cells were dosed at 10 μM (Y: yes))”. Further, the “Human microglial cytotoxicity at 10 μM (<70% control)” value in series [3] (10 μM, HMC3) is “Y (The compound was found to be cytotoxic (cell count threshold: <70% control) when human immortalized microglial cells were dosed at 10 μM (Y: yes))”. Also, the “Stimulation … (>150% control)” value in series [1] (10 μM, BV2) is listed as “Y (The compound was found to stimulate phagocytosis (response threshold: >150% control) when murine immortalized microglial cells were dosed at 10 μM (Y: yes))”. Moreover, in series [4] (HMC3), the “Inhibition … (<70% control)” value is on record as “Y (The compound was found to inhibit phagocytosis (response threshold: <70% control) when human immortalized microglial cells were dosed at 10 μM (Y: yes))”.

With `O=c1ccc2c(OCCCCc3ccccc3)c3ccoc3cc2o1` [Psora-4 (5-(4-Phenylbutoxy)psoralen)], the “Stimulation … (>150% control)” value in series [1] (10 μM, BV2) is given as “Y (The compound was found to stimulate phagocytosis (response threshold: >150% control) when murine immortalized microglial cells were dosed at 10 μM (Y: yes))”. In addition, the “Inhibition … (<70% control)” value in series [4] (HMC3) is given as “Y (The compound was found to inhibit phagocytosis (response threshold: <70% control) when human immortalized microglial cells were dosed at 10 μM (Y: yes))”.

Consider `CC/C(=C(\c1ccccc1)c1ccc(OCCN(C)C)cc1)c1ccccc1` [Tamoxifen], for which the “Stimulation … (>150% control)” value in series [1] (BV2, 10 μM) is listed as “Y (The compound was found to stimulate phagocytosis (response threshold: >150% control) when murine immortalized microglial cells were dosed at 10 μM (Y: yes))”.

As to `Clc1ccc(N/N=C(\c2ccccc2)c2ccccn2)nc1` [UNC3735A], the “1. Cell count (% control)” value is reported as 27.9 % control in series [2] (setting [9]) and 86.4 % control in series [3] (setting [10]). For the same molecule, the entries for the “2. Nuclear Area (% Control)” value in series [2] (setting [9]) and in series [3] (setting [10]) were 119.6 % Control and 86.7 % Control, respectively. The “3. Nuclear DNA Intensity (% control)” value in series [2] (setting [9]) was determined as 94.7 % control; in series [3] (setting [10]), 135.7 % control. The “4. Phagocytosis (% control)” value is given as 273.4 % control in series [1] (setting [11]) and 104.5 % control in series [4] (setting [12]).

On to `Cn1nccc1Nc1nccc(-c2ccn([C@H](CO)c3ccc(Cl)c(F)c3)c(=O)c2)n1` [UNC8131A], for which, in series [2] (setting [5]), the “1. Cell count (% control)” value was determined as 15.3 % control, the “2. Nuclear Area (% Control)” value is 134.5 % Control and the “3. Nuclear DNA Intensity (% control)” value stood at 44.7 % control. In addition, in series [3] (setting [6]), the “1. Cell count (% control)” value turned out to be 54.4 % control, the “2. Nuclear Area (% Control)” value is reported as 77.5 % Control and the “3. Nuclear DNA Intensity (% control)” value is listed as 167.5 % control. Besides, the “4. Phagocytosis (% control)” value in series [1] (setting [7]) was determined as 0.00107 % control. The “4. Phagocytosis (% control)” value in series [4] (setting [8]) was 12.1 % control.

For `CC(=O)O.Cc1c(-c2ccc(O)cc2)n(Cc2ccc(OCCN3CCCCCC3)cc2)c2ccc(O)cc12` [UNC10245115A], the “4. Phagocytosis (% control)” value in series [1] (setting [11]) came out at 0.00966 % control; in series [4] (setting [12]), 0.00872 % control.

For `CC(C)CCOc1ccc(N)cc1` [UNC10302876A], the “4. Phagocytosis (% control)” value in series [1] (setting [11]) worked out at 110.6 % control; in series [4] (setting [12]), 89.8 % control.

In the case of `O=C(NC12C[C@H]3C[C@@H](C1)C[C@@H](C2)C3)N[C@H]1CC[C@H](Oc2ccc(C(=O)O)cc2)CC1` [UNC10303108A], the “4. Phagocytosis (% control)” value in series [1] (setting [11]) amounted to 153.6 % control; in series [4] (setting [12]) it was 109.9 % control.

As for `O=C(NC12C[C@H]3C[C@@H](C1)C[C@@H](C2)C3)N[C@H]1CC[C@H](Oc2ccc(C(=O)O)cc2)CC1` [t-AUCB], the “Stimulation … (>150% control)” value in series [1] (BV2, 10 μM) is “Y (The compound was found to stimulate phagocytosis (response threshold: >150% control) when murine immortalized microglial cells were dosed at 10 μM (Y: yes))”.

(Values after PMC9019904, “AD Informer Set: Chemical tools to facilitate Alzheimer's disease drug discovery” (Alzheimer's & Dementia : Translational Research & Clinical …, 2022).)
